The source of these data is publication PMC8175350, “Drug repurposing screens identify chemical entities for the development of COVID-19 interventions” (Nature Communications, 2021).

Like-named read-outs stand apart in the source and are kept apart here. Residues, ends and D or L forms follow the SMILES beside them. *: point of attachment. Cbz = O=C(OCc1ccccc1)*; CHN2 = [N-]=[N+]=C*

One data set concerns COVID-19. To be noted: ref [9]; cited from earlier work.
In data set [1] the test system is SARS-CoV-2. The data set can be described thus: microbe, parasite or virus in culture. In kind it is cell-based. The settings on record: for Emax: Severe acute respiratory syndrome coronavirus 2, HeLa-ACE2, 24 h, read-out: HeLa-ACE2 CoV-2 Sinf Average; for EC50: read-out: HeLa-ACE2 CoV-2 EC50 GeoMean; for HeLa-ACE2 SI: selectivity index, uninfected HeLa-ACE2 CC50 / SARS-CoV-2 EC50.

The nature of data set [2]: Uninfected HeLa-ACE2 24 h live/dead cytotoxicity counter screen. In kind it is cell-based, human. The settings on record: human, uninfected HeLa-ACE2 cells, read-out: HeLa-ACE2 uninfected cytotoxicity CC50 GeoMean. In general terms: The purpose of a counterscreen is to sort out artefacts and off-target activity.
The subject of data set [3] is SARS-CoV-2. The data set is described as follows: microbe, parasite or virus in culture. In kind it is cell-based. The settings on record: for EC50: read-out: Calu-3 CoV-2 EC50 GeoMean; for Emax: Severe acute respiratory syndrome coronavirus 2, Calu-3, 48 h, curve plateau at infinite concentration, read-out: Calu-3 CoV-2 Sinf Average.
Data set [4] relates to SARS-CoV-2. The data set is described as follows: microbe, parasite or virus in culture. To be noted: for EC50: read-out: HeLa-ACE2 TOA CoV-2 EC50 GeoMean; for Emax: Severe acute respiratory syndrome coronavirus 2, HeLa-ACE2, 10 h, curve plateau at infinite concentration, read-out: HeLa-ACE2 TOA CoV-2 Sinf Average. In kind it is cell-based.
For data set [5], the system named is HeLa-ACE2 cells. The data set is described as follows: Total cell count in the HeLa-ACE2 TOA (time of addition) assay. In kind it is cell-based, human. To be noted: Homo sapiens, HeLa-ACE2; read-out: HeLa-ACE2 TOA cell count EC50 GeoMean.
The subject of data set [6] is HeLa-ACE2 cells. The data set is described as follows: cells. To be noted: Homo sapiens; for Emax: HeLa-ACE2, 24 h, read-out: HeLa-ACE2 cell count Sinf Average.
For data set [7], the system named is Calu-3 cells. The data set is described as follows: cells. To be noted: Homo sapiens.
Data set [8] is described as follows: in vitro. The settings on record: human.
Data set [9] concerns HepG2. The data set can be described thus: HepG2 72 h CellTiter-Glo cytotoxicity. The settings on record: 72 h. For orientation: In ATP-based viability assays light output follows the ATP content of the culture.
Data set [10] is described as follows: HEK293T 72 h CellTiter-Glo cytotoxicity. The settings on record: human, HEK293T cells.
Data set [11] has as its system HeLa-ACE2 cells. The data set is described as follows: Uninfected HeLa-ACE2 24 h live/dead cytotoxicity counter screen. In kind it is cell-based, human.
Data set [12] deals with SARS-CoV-2. In kind it is cell-based. To be noted: combination with remdesivir.
The test system of data set [13] is HeLa-ACE2 cells. The data set can be described thus: Total cell count in the HeLa-ACE2 TOA assay. In kind it is cell-based. To be noted: Homo sapiens, HeLa-ACE2; read-out: HeLa-ACE2 TOA cell count EC50 GeoMean. The text has this: Supplement 41467_2021_23328_MOESM3_ESM.xlsx, sheet "Table S1" | column: HeLa-ACE2 TOA cell count
The test system of data set [14] is Calu-3 cells. To be noted: for Calu-3 uninfected cytotoxicity Sinf Average: human, 48 h.
For data set [15], the system named is HepG2. The settings on record: human, 72 h.
The test system of another data set is HEK293T. The settings on record: human, 72 h.
Data set [16] is described as follows: in vitro. To be noted: human, Calu-3 uninfected cytotoxicity CC50 GeoMean.
Data set [17] in a line: in vitro. To be noted: human. This is another data set of the same source.
Data set [18] relates to HeLa-ACE2 cells. The data set is described as follows: cells. In kind it is cell-based, human. The settings on record: Homo sapiens, HeLa-ACE2; read-out: HeLa-ACE2 TOA cell count EC50 GeoMean.
Where [19] appears, read: Severe acute respiratory syndrome coronavirus 2, HeLa-ACE2, detail column.
Setting [20] is: Severe acute respiratory syndrome coronavirus 2, Calu-3.
Where [21] appears, read: HeLa-ACE2, read-out: HeLa-ACE2 cell count EC50 GeoMean.
[22] abbreviates: Calu-3, read-out: Calu-3 cell count EC50 GeoMean.
The mark [23] stands for this setting: curve plateau at infinite concentration.
The mark [24] stands for this setting: Severe acute respiratory syndrome coronavirus 2, HeLa-ACE2, detail block.

On to interferon, for which the “mortality of hospitalized COVID-19 patients” value in the data set with COVID-19 is reported as “failed to reduce mortality”.
Regarding `CC[C@H]1OC(=O)[C@H](C)[C@@H](O[C@H]2C[C@@](C)(OC)[C@@H](O)[C@H](C)O2)[C@H](C)[C@@H](O[C@@H]2O[C@H](C)C[C@H](N(C)C)[C@H]2O)[C@](C)(O)C[C@@H](C)CN(C)[C@H](C)[C@@H](O)[C@]1(C)O` [Azithromycin], the Emax in the data set with SARS-CoV-2 [1] amounted to 100%. Further, the EC50 (commonly the midpoint of the concentration-response curve) is 0.65 µM in the data set with SARS-CoV-2 [1] (setting [19]); > 9.85 µM in the data set with SARS-CoV-2 [3] (setting [20]); > 9.59 µM in the data set on SARS-CoV-2 [4] (setting [19]); > 9.59 µM with HeLa-ACE2 cells [5]; > 9.59 µM in the data set with HeLa-ACE2 cells [6] (setting [21]); > 9.85 µM in the data set on Calu-3 cells [7] (setting [22]). Moreover, the “HeLa-ACE2 SI” value in the data set on SARS-CoV-2 [1] is given as > 61.26. In addition, the CC50 at 24 h in [2] was > 39.8 µM. In the data set with SARS-CoV-2 [4], the “TOA:HeLa-ACE2 EC50 Ratio” value came out at 14.747. The CC50 in the data set “in vitro [8]” was > 39.8 µM. The “HepG2 72-hour cytotoxicity Sinf Average” value in the data set with HepG2 [9] is listed as -100%. The CC50 at 72 h in data set [10] was > 39.8 µM.
With `COC(=O)C1=C(C)NC(C)=C(C(=O)OCCN2CCN(C(c3ccccc3)c3ccccc3)CC2)C1c1cccc([N+](=O)[O-])c1` (centres unmarked) [Manidipine (Manyper)], the Emax with SARS-CoV-2 [1] (setting [23]) is 100%; in the data set on SARS-CoV-2 [3], 80%; in the data set on SARS-CoV-2 [4], 100%; with HeLa-ACE2 cells [6], 100%. Also, the concentration giving a half-maximal response (EC50) in the data set on SARS-CoV-2 [1] (setting [19]) is > 6.89 µM; in the data set on SARS-CoV-2 [3] (Severe acute respiratory syndrome coronavirus 2, Calu-3, detail column), > 5.48 µM; in the data set with SARS-CoV-2 [4] (Severe acute respiratory syndrome coronavirus 2, HeLa-ACE2), 7.72 µM; in the data set with HeLa-ACE2 cells [13] it was > 9.61 µM; in the data set on HeLa-ACE2 cells [6] (setting [21]), > 9.6 µM; with Calu-3 cells [7] (setting [22]), > 9.98 µM. Further, the CC50 at 24 h in data set [2] is > 17.1 µM. The “HeLa-ACE2 uninfected cytotoxicity Sinf Average” value with HeLa-ACE2 cells [11] (setting [23]) is -96%. The “HeLa-ACE2 synergy score with remdesivi [δ]” value in the data set with SARS-CoV-2 [12] (synergy score δ) is recorded as -4.727. Also, the “uninfected Calu-3 CC50” value in the data set on Calu-3 cells [14] is on record as > 29.89 ×÷ 1.002 (n=5) μM. In addition, the “Calu-3 uninfected cytotoxicity Sinf Average” value in the data set on Calu-3 cells [14] is given as -100%. Besides, the “HepG2 72-hour cytotoxicity Sinf Average” value in the data set with HepG2 [15] is reported as -100%. For the same compound, the “HEK293T 72-hour cytotoxicty Sinf Average” value in the data set on HEK293T was -100%. For the same compound, the CC50 at 48 h in “in vitro [16]” was > 29.9 µM. For the same compound, the CC50 at 72 h in “in vitro [8]” is 30.7 µM; in the data set “in vitro [17]”, 30.8 µM.
As for `CCOC(=O)[C@@H]1O[C@H]1C(=O)N[C@@H](CC(C)C)C(=O)N1CCN(Cc2ccc(OC)c(OC)c2OC)CC1` [NCO 700], the Emax was 90% in the data set on SARS-CoV-2 [1] and -26% in the data set with HeLa-ACE2 cells [6]. Besides, the EC50 in the data set on SARS-CoV-2 [1] (setting [19]) was 0.79 µM; in the data set with SARS-CoV-2 [3] (setting [20]), > 9.98 µM; with SARS-CoV-2 [4] (setting [19]) it was > 9.59 µM; with HeLa-ACE2 cells [5], > 9.59 µM; with HeLa-ACE2 cells [6] (setting [21]) it was > 5.08 µM; in the data set with Calu-3 cells [7] (setting [22]), > 9.98 µM. Besides, in the data set on SARS-CoV-2 [1], the “HeLa-ACE2 SI” value was > 50.44. Besides, the CC50 at 24 h in data set [2] is > 39.8 µM. Besides, the “TOA:HeLa-ACE2 EC50 Ratio” value in the data set on SARS-CoV-2 [4] is given as 12.146. For the same compound, the “HeLa-ACE2 synergy score with remdesivi” value in the data set with SARS-CoV-2 [12] is recorded as 0.209 δ. The “uninfected Calu-3 CC50” value with Calu-3 cells [14] was > 29.867 ×÷ 1.001 (n=3) μM. In addition, the CC50 at 48 h in the data set “in vitro [16]” was > 29.9 µM. Besides, the CC50 at 72 h in “in vitro [8]” and in “in vitro [17]” was > 39.8 µM each time.
As for `Oc1ccc(Nc2ccnc3cc(Cl)ccc23)cc1CN1CCCC1` [Amopyroquine], the Emax in the data set on SARS-CoV-2 [1] (setting [23]), in the data set on SARS-CoV-2 [3] and in the data set with SARS-CoV-2 [4] was 100% throughout. Moreover, the EC50 in the data set with SARS-CoV-2 [1] (setting [24]) is 0.904 µM; in the data set on SARS-CoV-2 [3] (Severe acute respiratory syndrome coronavirus 2, Calu-3, detail block), > 9.98 µM; in the data set with SARS-CoV-2 [4] (setting [24]), > 9.59 µM; in the data set with HeLa-ACE2 cells [18], > 9.59 µM; with HeLa-ACE2 cells [6] (HeLa-ACE2, read-out: HeLa-ACE2 cell count EC50 GeoMean, detail block) it was > 9.59 µM; in the data set with Calu-3 cells [7] (Calu-3, read-out: Calu-3 cell count EC50 GeoMean, detail block), > 9.98 µM. Moreover, in the data set with SARS-CoV-2 [1], the “HeLa-ACE2 SI” value was determined as 19.02. In addition, in [2] (detail block), the CC50 at 24 h was 17.2 µM. Also, the “HeLa-ACE2 uninfected cytotoxicity Sinf Average” value in the data set on HeLa-ACE2 cells [11] (setting [23]) is -100%. Further, the “Calu-3 SI” value in the data set on SARS-CoV-2 [3] (selectivity index, uninfected Calu-3 CC50 / Calu-3 SARS-CoV-2 EC50) amounted to 1.87. For the same compound, the “TOA:HeLa-ACE2 EC50 Ratio” value in the data set with SARS-CoV-2 [4] (TOA EC50 / HeLa-ACE2 SARS-CoV-2 EC50) was 10.603. In the data set with Calu-3 cells [14], the “uninfected Calu-3 CC50” value is 18.669 ×÷ 1.171 (n=3) μM. Besides, the “Calu-3 uninfected cytotoxicity Sinf Average” value in the data set on Calu-3 cells [14] is recorded as -96%. Also, the “HepG2 72-hour cytotoxicity Sinf Average” value with HepG2 [15] is recorded as -102%. The “HEK293T 72-hour cytotoxicty Sinf Average” value with HEK293T is given as -103%. The compound also returned a CC50 at 48 h in “in vitro [16]” of 18.7 µM. The CC50 at 72 h in the data set “in vitro [8]” amounted to 6.39 µM; in the data set “in vitro [17]” it was 6.31 µM.
Turning to `CC(C)CC(NC(=O)OCc1ccccc1)C(=O)NC(C(=O)NCC(=O)C=[N+]=[N-])C(C)C` (stereo not drawn) [Z LVG CHN2] (Cbz-Leu-Val-Gly-CHN2; configuration not given here), the Emax in the data set with SARS-CoV-2 [1] was 87%. Also, the EC50 with SARS-CoV-2 [1] (setting [19]) was 0.072 µM; with SARS-CoV-2 [3] (setting [20]), > 9.98 µM; in the data set with SARS-CoV-2 [4] (setting [19]) it was > 9.59 µM; with HeLa-ACE2 cells [5] it was > 9.59 µM; with HeLa-ACE2 cells [6] (setting [21]), > 9.59 µM; with Calu-3 cells [7] (setting [22]), > 9.98 µM. Besides, the “HeLa-ACE2 SI” value with SARS-CoV-2 [1] was > 554.29. The CC50 at 24 h in data set [2] was > 39.8 µM. Moreover, the “HeLa-ACE2 uninfected cytotoxicity Sinf Average” value with HeLa-ACE2 cells [11] (human, uninfected HeLa-ACE2 cells, 24 h) was -100%. For the same compound, the “TOA:HeLa-ACE2 EC50 Ratio” value in the data set on SARS-CoV-2 [4] is reported as 133.491. In the data set on Calu-3 cells [14], the “uninfected Calu-3 CC50” value was > 29.867 ×÷ 1.001 (n=3) μM. Besides, the CC50 at 48 h in “in vitro [16]” was > 29.9 µM. The CC50 at 72 h in “in vitro [8]” and in “in vitro [17]” was > 39.8 µM in each case.
